Data from patent US20210395210A1, “INHIBITION OF BACTERIAL CHAPERONIN SYSTEMS” (THE TRUSTEES OF INDIANA UNIVERSITY, priority 2018, published 2021).
Like-named read-outs stand apart in the source and are kept apart here.

Target: T1, E. coli GroEL/ES (Escherichia coli, UniProt P0A6F5)
T1 construct: made in house; host or cells: GroEL in E. coli DH5α; GroES in E. coli BL21 (DE3)
Assay: GroEL/ES-mediated dRho refolding assay
Format: biochemical
Experimental: Reagent preparation: For this assay, five primary reagent stocks were prepared: 1) GroEUES-dRho binary complex stock; 2) ATP initiation stock; 3) thiocyanate enzymatic assay stock; 4) formaldehyde quench stock; 5) ferric nitrate reporter stock. Denatured rhodanese (dRho) was prepared by 3-fold dilution of rhodanese (Roche product #R1756, diluted to 10 mg/mL with H2O) with denaturant buffer (12 M Urea, 50 mM Tris-HCl, pH 7.4, and 10 mM DTT). Rhodanese was completely denatured by incubating at room temperature for 45 min. The binary complex solution was prepared by slowly adding the dRho stock to a stirring stock of concentrated GroEL in modified folding buffer (50 mM Tris-HCl, pH 7.4, 50 mM KCl, 10 mM MgCl2, 5 mM Na2S2O3, and 1 mM DTT). The solution was centrifuged at 16,000×g for 5 minutes, and the supernatant was collected and added to a solution of GroES in modified folding buffer to give final protein concentrations of 100 nM GroEL, 120 nM GroES, and 80 nM dRho. The binary complex stock was prepared immediately prior to use. For the ATP initiation stock, ATP solid was diluted into modified folding buffer to a final concentration of 2.0 mM. The thiocyanate enzymatic assay stock was prepared to contain 70 mM KH2PO4, 80 mM KCN, and 80 mM Na2S2O3 in water. The formaldehyde quench solution contained 30% formaldehyde in water. The ferric nitrate reporter stock contained 8.5% w/v Fe(NO3)3 and 11.3% v/v HNO3 in water.
Assay Protocol: First, 10 μL aliquots of the GroEL/ES-dRho complex stock were dispensed into clear, 384-well polystyrene plates. […] The chaperonin-mediated refolding cycle was initiated by addition of 10 μL of ATP stock (reagent concentrations during refolding cycle: 50 nM GroEL, 60 nM GroES, 40 nM dRho, 1 mM ATP, and compounds of 250 μM to 114 nM, 3-fold dilution series). After incubating for 45 minutes at 37° C. for the refolding cycle, 30 μL of the thiocyanate enzymatic assay stock was added and incubated for 60 min at R.T. for the refolded rhodenase enzymatic reporter reaction. The reporter reaction was quenched by adding 10 μL of the formaldehyde quench stock, and then 40 μL of the ferric nitrate reporter stock was added to quantify the amount of thiocyanate produced during the enzymatic reporter reaction, which is proportional to the amount of dRho refolded by GroEL/ES. After incubating at R.T. for 15 min, the absorbance by Fe(SCN)3 was measured at 460 nm using a Molecular Devices SpectraMax Plus384 microplate reader. A second set of baseline control plates were prepared analogously, but without GroEL/ES-dRho protein binary solution, to correct for possible interference from compound absorbance or turbidity. […] Results presented represent the averages of IC50 values obtained from at least quadriplicate (duplicate of duplicate) replicates.
After generating the compound library, we next employed a series of well-established biochemical assays to evaluate compound inhibitory effects against the GroEUES chaperonin system (See FIG. 6 and FIG. 7). We used E. coli GroEUES as the surrogate chaperonin system for refolding of the reporter enzymes malate dehydrogenase (MDH) and rhodanese (Rho). Briefly, binary complexes are formed between GroEL and denatured MDH or Rho, which are then refolded to their native states upon addition of ATP and the GroES co-chaperonin. Enzymatic activities of refolded native MDH or Rho act as coupled reporters of GroEUES refolding functions since in the presence of chaperonin inhibitors, no functional reporter enzymes are generated.

[1] = log of IC50 (μM scale), with standard deviation
[2] = read-out: Biochemical Assay IC50 GroEL/ES-dRho Refolding

T1 sequence (P0A6F5 2-548): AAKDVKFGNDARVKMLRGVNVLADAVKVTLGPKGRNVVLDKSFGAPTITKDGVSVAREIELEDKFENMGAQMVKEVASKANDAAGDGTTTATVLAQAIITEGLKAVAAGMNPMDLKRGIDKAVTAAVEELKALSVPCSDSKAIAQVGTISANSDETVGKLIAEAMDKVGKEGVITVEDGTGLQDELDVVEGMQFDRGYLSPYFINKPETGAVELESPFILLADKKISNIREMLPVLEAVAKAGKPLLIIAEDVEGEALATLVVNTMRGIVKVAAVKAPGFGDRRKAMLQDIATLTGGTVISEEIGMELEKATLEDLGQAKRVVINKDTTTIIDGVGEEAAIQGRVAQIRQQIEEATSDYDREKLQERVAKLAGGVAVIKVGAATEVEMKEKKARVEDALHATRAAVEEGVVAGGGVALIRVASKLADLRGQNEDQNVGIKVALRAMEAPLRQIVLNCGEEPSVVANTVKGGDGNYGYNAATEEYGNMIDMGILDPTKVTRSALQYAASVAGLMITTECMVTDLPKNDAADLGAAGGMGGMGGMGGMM

Structure (SMILES)	IC50 [µM]	log(IC50) GroEL/ES-dRho Refolding [1]	IC50 [2] [µM]	IC50 (log of IC50 (μM scale), with standard deviation, read-out: log(IC50) GroEL/ES-dRho Refolding (converted)) [µM]
COc1c(Br)cccc1C(=O)Nc1ccccc1 [Compound 42, 3-Bromo-2-methoxy-N-phenylbenzamide]	> 100	>2		
O=C(Nc1ccc(Sc2nc3ccccc3s2)c(Cl)c1)c1cc(Br)cc(Br)c1 [Compound 17, N-(4-(Benzo[d]thiazol-2-ylthio)-3-chlorophenyl)-3,5-dibromobenzamide]	> 100			
O=C(Nc1cccc(Cl)c1)c1cccc(Br)c1 [Compound 24, 3-Bromo-N-(3-chlorophenyl)benzamide]	> 100	>2		
O=C(Nc1cccc(Cl)c1)c1ccccc1 [Compound 25, N-(3-Chlorophenyl)benzamide]	> 100	>2		
COc1c(Br)cc(Br)cc1C(=O)Nc1cccc(Cl)c1 [Compound 37, 3,5-Dibromo-N-(3-chlorophenyl)-2-methoxybenzamide]	> 100	>2		
O=C(Nc1cccc(Cl)c1)c1cc(Br)cc(Br)c1O [Compound 9, 3,5-Dibromo-N-(3-chlorophenyl)-2-hydroxybenzamide]		1.67 ± 0.04	47	
O=C(Nc1ccc(Sc2nc3ccccc3s2)cc1)c1cc(Br)ccc1O [Compound 7, N-(4-(Benzo[d]thiazol-2-ylthio)phenyl)-5-bromo-2-hydroxybenzamide]		1.48 ± 0.11	30	
COc1ccccc1C(=O)Nc1ccc(Sc2nc3ccccc3s2)c(Cl)c1 [Compound 32, N-(4-(Benzo[d]thiazol-2-ylthio)-3-chlorophenyl)-2-methoxybenzamide]	> 100			
O=C(Nc1ccc(Sc2nc3ccccc3s2)c(Cl)c1)c1ccccc1 [Compound 19, N-(4-(Benzo[d]thiazol-2-ylthio)-3-chlorophenyl)benzamide]	> 100			
O=C(Nc1cccc(Cl)c1)c1ccccc1O [Compound 12, N-(3-Chlorophenyl)-2-hydroxybenzamide]	> 100	>2		
O=C(Nc1ccc(Sc2nc3ccccc3s2)c(Cl)c1)c1ccccc1O [Compound 4, N-(4-(Benzo[d]thiazol-2-ylthio)-3-chlorophenyl)-2-hydroxybenzamide]		1.80 ± 0.27	63	
O=C(Nc1ccc(Sc2nc3ccccc3s2)cc1)c1cccc(Br)c1 [Compound 21, N-(4-(Benzo[d]thiazol-2-ylthio)phenyl)-3-bromobenzamide]	> 100			
COc1c(Br)cc(Br)cc1C(=O)Nc1ccccc1 [Compound 41, 3,5-Dibromo-2-methoxy-N-phenylbenzamide]	> 100	>2		
O=C(Nc1ccc(Oc2ccc(Cl)cc2)c(Cl)c1)c1cc(I)cc(I)c1O [Rafoxanide, rafoxanide, reference compound]		0.34 ± 0.11	2.2	
COc1ccccc1C(=O)Nc1ccc(Sc2nc3ccccc3s2)cc1 [Compound 36, N-(4-(Benzo[d]thiazol-2-ylthio)phenyl)-2-methoxybenzamide]	> 100			
O=C(Nc1cccc(Cl)c1)c1cc(Br)cc(Br)c1 [Compound 23, 3,5-Dibromo-N-(3-chlorophenyl)benzamide]	> 100	>2		
O=C(Nc1ccccc1)c1cccc(Br)c1 [Compound 27, 3-Bromo-N-phenylbenzamide]	> 100	>2		
COc1ccc(Br)cc1C(=O)Nc1ccc(Sc2nc3ccccc3s2)cc1 [Compound 35, N-(4-(Benzo[d]thiazol-2-ylthio)phenyl)-5-bromo-2-methoxybenzamide]	> 100			
O=C(Nc1ccc(Sc2nc3ccccc3s2)c(Cl)c1)c1cc(Br)ccc1O [Compound 3, N-(4-(Benzo[d]thiazol-2-ylthio)-3-chlorophenyl)-5-bromo-2-hydroxybenzamide]		1.04 ± 0.38	11	

Structure (SMILES)	IC50 [µM]	log(IC50) GroEL/ES-dRho Refolding [1]	IC50 [2] [µM]	IC50 (log of IC50 (μM scale), with standard deviation, read-out: log(IC50) GroEL/ES-dRho Refolding (converted)) [µM]
COc1ccccc1C(=O)Nc1cccc(Cl)c1 [Compound 40, N-(3-Chlorophenyl)-2-methoxybenzamide]	> 100	>2		
O=C(Nc1ccccc1)c1cccc(Br)c1O [Compound 14, 3-Bromo-2-hydroxy-N-phenylbenzamide]	> 100	>2		
O=C(Nc1ccccc1)c1cc(Br)cc(Br)c1 [Compound 26, 3,5-Dibromo-N-phenylbenzamide]	> 100	>2		
COc1ccccc1C(=O)Nc1ccccc1 [Compound 44, 2-Methoxy-N-phenylbenzamide]	> 100	>2		
O=C(Nc1ccc(Sc2nc3ccccc3s2)cc1)c1ccccc1 [Compound 22, N-(4-(Benzo[d]thiazol-2-ylthio)phenyl)benzamide]	> 100			
CC1(C)S[C@@H]2[C@H](NC(=O)[C@H](N)c3ccccc3)C(=O)N2[C@H]1C(=O)O [Ampicillin, ampicillin, reference compound]		>2	> 100	
COc1c(Br)cc(Br)cc1C(=O)Nc1ccc(Sc2nc3ccccc3s2)c(Cl)c1 [Compound 29, N-(4-(Benzo[d]thiazol-2-ylthio)-3-chlorophenyl)-3,5-dibromo-2-methoxybenzamide]	> 100			
O=C(Nc1ccccc1)c1cc(Br)ccc1O [Compound 15, 5-Bromo-2-hydroxy-N-phenylbenzamide]	> 100	>2		
COc1ccc(Br)cc1C(=O)Nc1cccc(Cl)c1 [Compound 39, 5-Bromo-N-(3-chlorophenyl)-2-methoxybenzamide]	> 100	>2		
O=C(Nc1ccc(Sc2nc3ccccc3s2)c(Cl)c1)c1cccc(Br)c1 [Compound 18, N-(4-(Benzo[d]thiazol-2-ylthio)-3-chlorophenyl)-3-bromobenzamide]	> 100			
COc1c(Br)cccc1C(=O)Nc1cccc(Cl)c1 [Compound 38]	> 100	>2		
O=C(Nc1ccc(Sc2nc3ccccc3s2)cc1)c1cccc(Br)c1O [Compound 6, N-(4-(Benzo[d]thiazol-2-ylthio)phenyl)-3-bromo-2-hydroxybenzamide]			14	13.8
Cc1cc(C(C#N)c2ccc(Cl)cc2)c(Cl)cc1NC(=O)c1cc(I)cc(I)c1O (centres unmarked) [Closantel, closantel, reference compound]	1.55		1.5	
COc1c(Br)cc(Br)cc1C(=O)Nc1ccc(Sc2nc3ccccc3s2)cc1 [Compound 33, N-(4-(Benzo[d]thiazol-2-ylthio)phenyl)-3,5-dibromo-2-methoxybenzamide]	> 100			
COc1ccc(Br)cc1C(=O)Nc1ccc(Sc2nc3ccccc3s2)c(Cl)c1 [Compound 31, N-(4-(Benzo[d]thiazol-2-ylthio)-3-chlorophenyl)-5-bromo-2-methoxybenzamide]	> 100			
O=C(Nc1ccccc1)c1cc(Br)cc(Br)c1O [Compound 13, 3,5-Dibromo-2-hydroxy-N-phenylbenzamide]	> 100	>2		
O=C(Nc1ccc(Sc2nc3ccccc3s2)cc1)c1cc(Br)cc(Br)c1 [Compound 20, N-(4-(Benzo[d]thiazol-2-ylthio)phenyl)-3,5-dibromobenzamide]	> 100			
O=C(Nc1ccccc1)c1ccccc1O [Compound 16, 2-Hydroxy-N-phenylbenzamide]		>2	> 100	
